The source made the active and inactive calls.
Key:
Aspergillus fumigatus [1] = assay: Antifungal activity against Aspergillus fumigatus AF4215 hyphae co-incubated with human monocytes assessed as hyphal damage at 0.1 ug/ml after 20 hrs by XTT assay; format: functional, organism-based
Aspergillus fumigatus [2] = assay: Antifungal activity against Aspergillus fumigatus AF4215 hyphae assessed as hyphal damage at 0.1 ug/ml after 20 hrs by XTT assay; format: functional, organism-based
Aspergillus fumigatus [3] = assay: Antifungal activity against Aspergillus fumigatus AF4215 hyphae co-incubated with monocytes assessed as hyphal damage at 0.1 ug/ml after 6 hrs by XTT assay; format: functional, organism-based
Aspergillus fumigatus [4] = assay: Antifungal activity against Aspergillus fumigatus AF4215 hyphae co-incubated with human THP1 cells assessed as hyphal damage at 0.1 ug/ml after 6 hrs by XTT assay; format: functional, organism-based; settings: THP-1
THP-1 [5] = assay: Increase in NF-kappaB-mediated TLR2 mRNA expression in human THP1 cells co-incubated with Aspergillus fumigatus hyphae at 0.5 ug/ml after 6 hrs by RT-PCR analysis; format: cell-based
THP-1 [6] = assay: Increase in NF-kappaB-mediated TLR2 mRNA expression in human THP1 cells at 0.5 ug/ml after 6 hrs by RT-PCR analysis; format: cell-based
THP-1 [7] = assay: Effect on TLR4 mRNA expression in human THP1 cells co-incubated with Aspergillus fumigatus hyphae at 0.5 ug/ml after 6 hrs by RT-PCR analysis; format: functional, cell-based
THP-1 [8] = assay: Effect on TLR4 mRNA expression in human THP1 cells at 0.5 ug/ml after 6 hrs by RT-PCR analysis; format: functional, cell-based
THP-1 [9] = assay: Increase in NF-kappaB-mediated TNF-alpha mRNA expression in human THP1 cells co-incubated with Aspergillus fumigatus hyphae at 0.5 ug/ml after 6 hrs by RT-PCR analysis; format: cell-based
THP-1 [10] = assay: Increase in NF-kappaB-mediated TNF-alpha mRNA expression in human THP1 cells at 0.5 ug/ml after 6 hrs by RT-PCR analysis; format: cell-based
THP-1 [11] = assay: Increase in NF-kappaB-mediated TLR2 protein expression in human THP1 cells co-incubated with Aspergillus fumigatus hyphae at 0.5 ug/ml after 6 hrs by Western blot analysis; format: cell-based
THP-1 [12] = assay: Increase in NF-kappaB-mediated TLR2 protein expression in human THP1 cells at 0.5 ug/ml after 6 hrs by Western blot analysis; format: cell-based
THP-1 [13] = assay: Effect on TLR4 protein expression in human THP1 cells co-incubated with Aspergillus fumigatus hyphae at 0.5 ug/ml after 6 hrs by Western blot analysis; format: functional, cell-based
THP-1 [14] = assay: Effect on TLR4 protein expression in human THP1 cells at 0.5 ug/ml after 6 hrs by Western blot analysis; format: functional, cell-based

Measured: Activity

C[C@@H](c1ncncc1F)[C@](O)(Cn1cncn1)c1ccc(F)cc1F
inactive: THP-1 [7] | THP-1 [8] | THP-1 [13] | THP-1 [14]
active: all other assays above

From ChEMBL document CHEMBL1687711
